Experimental data as given in article PMC4468202, “Improved Visualization and Specific Binding for Metabotropic Glutamate Receptor Subtype 1 (mGluR1) Using [^11C]ITMM with Ultra-High Specific Activity in Small-Animal PET” (PLoS ONE, 2015).
Values joined by “and” are separate entries in the source; they are usually repeats but may differ in a detail not shown here. Identical values can stand only once.

Molecular target: mGluR1 (Rattus norvegicus, UniProt P23385)
Test: Two-tissue compartment model (2TCM) kinetic analysis of PET data
Assay type: in vivo
Parameters: from tissue; host or cells: living SD rat brain (in vivo PET)
Description: Kinetic analysis of [^11C]ITMM was performed using the two-tissue compartment model (2TCM). The compartments correspond to the radioactivity concentrations of unchanged radioprobe in the plasma (C P), free and non-specifically bound radioprobe (C 1), and radioprobe specifically bound to receptors (C 2). The rate constants K 1 and k 2 correspond to the influx and outflux rates of the radioprobe across the blood-brain barrier. The rate constants k 3 and k 4 correspond to the rates of radioprobe transfer between the C 1 and C 2 compartments. The blood volume fraction (vB) in the rat brain was fixed at 2% [28]. The four rate constants of the 2TCM were obtained by a nonlinear least squares fitting technique, using PMOD version 3.4 (PMOD Technologies).
The distribution of [^11C]ITMM in free or tissue compartments was described using the concept of free ligand distribution volume (DV f) or V T, which was defined by the following equations: DVf=K1/k2 (1) VT=DVf(1+k3/k4) (2)
The nondisplacable binding potential (BP ND) is defined using the index of specific bindings of the radioprobe, meaning the receptor density (B max) to binding affinity (K D) ratio, which corresponds with the ratio of k 3 to k 4 in the 2TCM [26]. The BP ND is defined as follows: BPND=fND⋅Bmax/KD=k3/k4 (3) Here, f ND represents the tissue-free fraction of radioprobe in the nondisplacable compartment. Although the fraction of radioprobe that is unbound to plasma proteins was not measured in the present study, the value of f ND is close to 1.0 [29].

[1] = cingulate cortex, conventional SA
[2] = cingulate cortex, ultra-high SA
[3] = substantia nigra, conventional SA
[4] = substantia nigra, ultra-high SA

Chain of mGluR1 (P23385 19-1199): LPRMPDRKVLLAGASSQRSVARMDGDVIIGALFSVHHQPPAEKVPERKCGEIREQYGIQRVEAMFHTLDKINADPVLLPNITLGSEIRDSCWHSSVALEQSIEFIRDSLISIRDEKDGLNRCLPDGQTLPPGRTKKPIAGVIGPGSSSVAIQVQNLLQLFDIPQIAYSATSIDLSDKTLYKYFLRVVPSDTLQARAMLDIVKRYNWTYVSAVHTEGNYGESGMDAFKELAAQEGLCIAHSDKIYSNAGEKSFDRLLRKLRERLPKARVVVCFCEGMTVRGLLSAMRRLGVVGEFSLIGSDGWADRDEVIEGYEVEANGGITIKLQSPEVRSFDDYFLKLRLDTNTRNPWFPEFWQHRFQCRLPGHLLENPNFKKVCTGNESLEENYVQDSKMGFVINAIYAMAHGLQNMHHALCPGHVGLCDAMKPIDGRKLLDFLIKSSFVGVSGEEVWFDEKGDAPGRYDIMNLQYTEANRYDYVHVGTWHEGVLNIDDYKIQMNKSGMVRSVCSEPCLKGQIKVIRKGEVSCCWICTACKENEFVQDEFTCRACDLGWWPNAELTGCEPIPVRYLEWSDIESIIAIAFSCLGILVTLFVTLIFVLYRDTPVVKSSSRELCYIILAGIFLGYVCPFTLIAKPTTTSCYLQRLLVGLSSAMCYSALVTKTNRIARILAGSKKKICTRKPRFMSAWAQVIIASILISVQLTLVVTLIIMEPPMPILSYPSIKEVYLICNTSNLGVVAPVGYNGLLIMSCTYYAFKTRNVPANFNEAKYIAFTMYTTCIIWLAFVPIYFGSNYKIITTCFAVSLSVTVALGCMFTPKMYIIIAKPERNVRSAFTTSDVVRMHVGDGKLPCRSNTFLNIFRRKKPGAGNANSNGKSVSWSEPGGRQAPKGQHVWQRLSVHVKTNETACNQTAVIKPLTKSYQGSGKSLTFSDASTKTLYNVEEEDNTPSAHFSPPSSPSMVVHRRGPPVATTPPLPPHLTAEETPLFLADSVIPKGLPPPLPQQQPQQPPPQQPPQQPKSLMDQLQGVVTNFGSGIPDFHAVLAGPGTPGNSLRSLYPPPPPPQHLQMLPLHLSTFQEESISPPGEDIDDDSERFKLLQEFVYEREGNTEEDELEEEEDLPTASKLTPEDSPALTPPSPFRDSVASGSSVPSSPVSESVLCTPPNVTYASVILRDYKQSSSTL

Structure (SMILES): CC(C)Nc1cc(-c2csc(N(C)C(=O)c3ccc(O[11CH3])cc3)n2)ncn1 [[^11C]ITMM, N-[4-[6-(isopropylamino)pyrimidin-4-yl]-1,3-thiazol-2-yl]-4-[^11C]methoxy-N-methyl-benzamide]
- BP ND (k 3/k 4) (cerebellum, conventional SA): 33.2 ± 1.4
- DV f (K 1/k 2) (cerebellum, conventional SA): 0.429 ± 0.020
- K 1 (cerebellum, conventional SA): 0.344 ± 0.010 mL/cm^3/min
- V T (cerebellum, conventional SA): 14.56 ± 0.50 mL/cm^3
- k 2 (cerebellum, conventional SA): 0.811 ± 0.045 min⁻¹
- k 3 (cerebellum, conventional SA): 0.619 ± 0.035 min⁻¹
- k 4 (cerebellum, conventional SA): 0.019 ± 0.001 min⁻¹
- BP ND (k 3/k 4) (cerebellum, ultra-high SA): 48.9 ± 2.6
- DV f (K 1/k 2) (cerebellum, ultra-high SA): 0.336 ± 0.020
- K 1 (cerebellum, ultra-high SA): 0.366 ± 0.019 mL/cm^3/min
- V T (cerebellum, ultra-high SA): 16.69 ± 0.92 mL/cm^3
- k 2 (cerebellum, ultra-high SA): 1.112 ± 0.098 min⁻¹
- k 3 (cerebellum, ultra-high SA): 0.799 ± 0.035 min⁻¹
- k 4 (cerebellum, ultra-high SA): 0.016 ± 0.000 min⁻¹
- BP ND (k 3/k 4) [1]: 21.7 ± 1.2
- DV f (K 1/k 2) [1]: 0.302 ± 0.021
- K 1 [1]: 0.312 ± 0.008 mL/cm^3/min
- V T [1]: 6.76 ± 0.25 mL/cm^3
- k 2 [1]: 1.062 ± 0.086 min⁻¹
- k 3 [1]: 0.643 ± 0.053 min⁻¹
- k 4 [1]: 0.030 ± 0.001 min⁻¹
- BP ND (k 3/k 4) [2]: 32.8 ± 1.9
- DV f (K 1/k 2) [2]: 0.257 ± 0.008
- K 1 [2]: 0.339 ± 0.019 mL/cm^3/min
- V T [2]: 8.66 ± 0.45 mL/cm^3
- k 2 [2]: 1.317 ± 0.054 min⁻¹
- k 3 [2]: 0.740 ± 0.036 min⁻¹
- k 4 [2]: 0.023 ± 0.001 min⁻¹
- BP ND (k 3/k 4) (hippocampus, conventional SA): 24.8 ± 1.8
- DV f (K 1/k 2) (hippocampus, conventional SA): 0.292 ± 0.011
- K 1 (hippocampus, conventional SA): 0.303 ± 0.015 mL/cm^3/min
- V T (hippocampus, conventional SA): 7.44 ± 0.27 mL/cm^3
- k 2 (hippocampus, conventional SA): 1.052 ± 0.082 min⁻¹
- k 3 (hippocampus, conventional SA): 0.644 ± 0.051 min⁻¹
- k 4 (hippocampus, conventional SA): 0.026 ± 0.001 min⁻¹
- BP ND (k 3/k 4) (hippocampus, ultra-high SA): 38.2 ± 1.5
- DV f (K 1/k 2) (hippocampus, ultra-high SA): 0.228 ± 0.008
- K 1 (hippocampus, ultra-high SA): 0.320 ± 0.020 mL/cm^3/min
- V T (hippocampus, ultra-high SA): 8.93 ± 0.47 mL/cm^3
- k 2 (hippocampus, ultra-high SA): 1.415 ± 0.107 min⁻¹
- k 3 (hippocampus, ultra-high SA): 0.784 ± 0.027 min⁻¹
- k 4 (hippocampus, ultra-high SA): 0.021 ± 0.000 min⁻¹
- BP ND (k 3/k 4) (pons, conventional SA): 8.3 ± 0.5
- DV f (K 1/k 2) (pons, conventional SA): 0.224 ± 0.011
- K 1 (pons, conventional SA): 0.271 ± 0.015 mL/cm^3/min
- V T (pons, conventional SA): 2.06 ± 0.06 mL/cm^3
- k 2 (pons, conventional SA): 1.237 ± 0.122 min⁻¹
- k 3 (pons, conventional SA): 0.256 ± 0.022 min⁻¹
- k 4 (pons, conventional SA): 0.031 ± 0.001 min⁻¹
- BP ND (k 3/k 4) (pons, ultra-high SA): 9.8 ± 0.5
- DV f (K 1/k 2) (pons, ultra-high SA): 0.221 ± 0.015
- K 1 (pons, ultra-high SA): 0.244 ± 0.004 mL/cm^3/min
- V T (pons, ultra-high SA): 2.39 ± 0.23 mL/cm^3
- k 2 (pons, ultra-high SA): 1.131 ± 0.084 min⁻¹
- k 3 (pons, ultra-high SA): 0.253 ± 0.011 min⁻¹
- k 4 (pons, ultra-high SA): 0.026 ± 0.001 min⁻¹
- BP ND (k 3/k 4) (striatum, conventional SA): 20.0 ± 1.1
- DV f (K 1/k 2) (striatum, conventional SA): 0.367 ± 0.015
- K 1 (striatum, conventional SA): 0.278 ± 0.014 mL/cm^3/min
- V T (striatum, conventional SA): 7.7 mL/cm^3 and 7.66 ± 0.28 mL/cm^3
- k 2 (striatum, conventional SA): 0.769 ± 0.061 min⁻¹
- k 3 (striatum, conventional SA): 0.612 ± 0.036 min⁻¹
- k 4 (striatum, conventional SA): 0.031 ± 0.001 min⁻¹
- BP ND (k 3/k 4) (striatum, ultra-high SA): 30.6 ± 1.8
- DV f (K 1/k 2) (striatum, ultra-high SA): 0.311 ± 0.021
- K 1 (striatum, ultra-high SA): 0.294 ± 0.014 mL/cm^3/min
- V T (striatum, ultra-high SA): 9.7 mL/cm^3 and 9.66 ± 0.41 mL/cm^3
- k 2 (striatum, ultra-high SA): 0.972 ± 0.083 min⁻¹
- k 3 (striatum, ultra-high SA): 0.722 ± 0.043 min⁻¹
- k 4 (striatum, ultra-high SA): 0.024 ± 0.001 min⁻¹
- BP ND (k 3/k 4) [3]: 16.6 ± 1.6
- DV f (K 1/k 2) [3]: 0.378 ± 0.030
- K 1 [3]: 0.298 ± 0.021 mL/cm^3/min
- V T [3]: 6.4 mL/cm^3 and 6.44 ± 0.22 mL/cm^3
- k 2 [3]: 0.840 ± 0.128 min⁻¹
- k 3 [3]: 0.470 ± 0.031 min⁻¹
- k 4 [3]: 0.029 ± 0.001 min⁻¹
- BP ND (k 3/k 4) [4]: 26.1 ± 2.0
- DV f (K 1/k 2) [4]: 0.321 ± 0.023
- K 1 [4]: 0.292 ± 0.012 mL/cm^3/min
- V T [4]: 8.5 mL/cm^3 and 8.53 ± 0.47 mL/cm^3
- k 2 [4]: 0.933 ± 0.075 min⁻¹
- k 3 [4]: 0.602 ± 0.036 min⁻¹
- k 4 [4]: 0.023 ± 0.001 min⁻¹
- BP ND (k 3/k 4) (thalamus, conventional SA): 25.5 ± 1.2
- DV f (K 1/k 2) (thalamus, conventional SA): 0.347 ± 0.018
- K 1 (thalamus, conventional SA): 0.303 ± 0.012 mL/cm^3/min
- V T (thalamus, conventional SA): 9.1 mL/cm^3 and 9.12 ± 0.37 mL/cm^3
- k 2 (thalamus, conventional SA): 0.886 ± 0.064 min⁻¹
- k 3 (thalamus, conventional SA): 0.669 ± 0.033 min⁻¹
- k 4 (thalamus, conventional SA): 0.026 ± 0.001 min⁻¹
- BP ND (k 3/k 4) (thalamus, ultra-high SA): 38.5 ± 1.1
- DV f (K 1/k 2) (thalamus, ultra-high SA): 0.284 ± 0.018
- K 1 (thalamus, ultra-high SA): 0.313 ± 0.016 mL/cm^3/min
- V T (thalamus, ultra-high SA): 11.2 mL/cm^3 and 11.15 ± 0.51 mL/cm^3
- k 2 (thalamus, ultra-high SA): 1.125 ± 0.088 min⁻¹
- k 3 (thalamus, ultra-high SA): 0.817 ± 0.025 min⁻¹
- k 4 (thalamus, ultra-high SA): 0.021 ± 0.000 min⁻¹
